Measured values taken from article PMC2834880 (International journal of biological macromolecules, 2010).
Entries after “also recorded” stand apart in the source; their conditions may differ. Like-named read-outs stand apart in the source and are kept apart here. Where no end group is shown, it is not given here.

What was measured:
[1] = target: purified F1 and membrane bound F1Fo E. coli ATP synthase (Escherichia coli, UniProt P0ABB4); test: biochemical
[2] = system: wild-type E. coli strain pBWU13.4/DK; assay type: cell-based, Escherichia coli
[3] = system: E. coli strain pBWU13.4/DK8; assay type: cell-based, Escherichia coli
[4] = succinate plates, limiting glucose, or LB media

purified F1 and membrane bound F1Fo E. coli ATP synthase, sequence (P0ABB4 whole entry, looked up): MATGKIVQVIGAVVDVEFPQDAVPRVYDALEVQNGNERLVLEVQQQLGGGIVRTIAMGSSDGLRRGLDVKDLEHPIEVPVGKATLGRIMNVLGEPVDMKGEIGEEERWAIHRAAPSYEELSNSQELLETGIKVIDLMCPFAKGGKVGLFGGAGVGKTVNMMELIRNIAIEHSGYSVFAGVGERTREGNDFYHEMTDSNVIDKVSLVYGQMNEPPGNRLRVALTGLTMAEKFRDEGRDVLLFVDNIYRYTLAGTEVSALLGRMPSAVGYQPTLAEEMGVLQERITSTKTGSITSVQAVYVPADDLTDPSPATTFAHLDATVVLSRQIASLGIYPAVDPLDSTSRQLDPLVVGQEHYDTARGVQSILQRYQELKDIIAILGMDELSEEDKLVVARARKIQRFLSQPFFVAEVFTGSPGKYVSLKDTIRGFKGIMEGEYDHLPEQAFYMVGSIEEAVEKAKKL

Dermaseptin
ATPase inhibition (%) [1]: 26% | residual ATPase activity at maximal inhibition [1]: ~ 74% | growth of E. coli in presence of peptide [2]: no growth; also recorded: abrogated growth

Caerin 1.9
ATPase inhibition (%) [1]: 52% | maximal inhibition of ATPase activity [1]: ~ 52%

Aurein 2.2: amphibian antimicrobial peptide, Litoria aurea, 16 residues (GLFDIVKKVVGALGSL-NH2)
more inhibition of ATPase than aurein 2.3 ([1]; Leu-13 (aurein 2.2) instead of Ile-13 (aurein 2.3)): ~ 40% | Growth yield on limiting glucose (%) [3]: 12% | growth of E. coli in presence of peptide [2, 4]: no growth; also recorded: abrogated growth

Ascaphin-8
ATPase inhibition (%) [1]: 59% | residual ATPase activity at maximal inhibition [1]: ~ 41% | growth of E. coli in presence of peptide [2]: no growth; also recorded: abrogated growth

XT-7: amphibian antimicrobial peptide, Xenopus tropicalis, 18 residues (GLLGPLLKIAAKVGSNLL)
Growth yield on limiting glucose (%) [3]: 89% | growth of E. coli in presence of peptide [2, 4]: did not affect growth

CC[C@H](C)[C@H](NC(=O)CN)C(=O)NCC(=O)N[C@@H](C)C(=O)N[C@H](C(=O)N[C@@H](CC(C)C)C(=O)N[C@@H](CCCCN)C(=O)N[C@H](C(=O)N[C@@H](CC(C)C)C(=O)N[C@H](C(=O)N[C@H](C(=O)NCC(=O)N[C@@H](CC(C)C)C(=O)N1CCC[C@H]1C(=O)N[C@@H](C)C(=O)N[C@@H](CC(C)C)C(=O)N[C@H](C(=O)N[C@@H](CO)C(=O)N[C@@H](Cc1c[nH]c2ccccc12)C(=O)N[C@H](C(=O)N[C@@H](CCCCN)C(=O)N[C@@H](CCCNC(=N)N)C(=O)N[C@@H](CCCCN)C(=O)N[C@@H](CCCNC(=N)N)C(=O)N[C@@H](CCC(N)=O)C(=O)N[C@@H](CCC(N)=O)C(N)=O)[C@@H](C)CC)[C@@H](C)CC)[C@@H](C)O)[C@@H](C)O)C(C)C)C(C)C [Melittin-NH2, reference compound]
IC50 [1]: ~4.68 µM

Aurein 2.3: amphibian antimicrobial peptide, Litoria aurea, 16 residues (GLFDIVKKVVGAIGSL-NH2)
Growth yield on limiting glucose (%) [3]: 24% | growth of E. coli in presence of peptide [2, 4]: no growth; also recorded: abrogated growth

Magainin II
ATPase inhibition (%) [1]: 20% | maximal inhibition of ATPase activity [1]: ~ 20% | growth of E. coli in presence of peptide [2]: did not affect growth

Citropin 1.1
ATPase inhibition (%) [1]: 57% | residual ATPase activity at maximal inhibition [1]: ~ 43% | growth of E. coli in presence of peptide [2]: no growth; also recorded: abrogated growth

Caerin 1.8: amphibian antimicrobial peptide, Litoria chloris, 24 residues (GLFKVLGSVAKHLLPHVVPVIAEK)
Growth yield on limiting glucose (%) [3]: 99% | growth of E. coli in presence of peptide ([2]; succinate plates, limiting glucose, or LB media, listed as carein 1.8): did not affect growth

AIGSILGALAKGLPTLISWIKNR [MRP]
IC50 [1]: ~4.77 µM
